How the values were obtained:
[1] = tested on: H9; details: removed in 6 hrs following a 1 hr, 10 μM exposure, taken from ref. 26; cited from earlier work
[2] = tested on: MOLT-4; details: platination level that reduces CAT activity to 37% of control, taken from ref. 26; cited from earlier work
[3] = tested on: MOLT-4; test: inhibition of growth of MOLT-4 cells, 3 day continuous cisplatin exposure; assay type: cell-based, human; details: continuous exposure to cisplatin for 3 days, 50% reduction in cell number
Experimental: (§1) The expression of total ERCC1 mRNA, exon VIII^- mRNA and XPA mRNA was examined in three human T lymphocyte cell lines (HuT 78, H9 and MOLT-4), using essentially the methods described in Example 1. The cells were obtained from the American Type Culture Collection, Rockville, Md. Cells were cultured in RPMI-1640 medium supplemented with 10% heat-inactivated calf serum, 100 μg/ml penicillin, 100 μg/ml streptomycin and 2 mM glutamine.
(§2) All cell lines were assayed for sensitivity to cisplatin by measurement of the inhibition of growth following 3 day cisplatin exposures ranging from 0.5 to 100 μM. Cell lines were seeded at an initial cell density of 5×10^4 cells/ml, After continuous contact with drug for 3 days, cell counts obtained by Coulter counter were expressed as a percentage of counts obtained from aliquots of control cells, cultured in the absence of drug. Cells treated similarly but for the absence of drug served as controls. IC50 values were assessed as those drug levels effecting a 50% reduction in cell number as compared to Untreated cells.

[4] = tested on: HuT 78; details: platination level that reduces CAT activity to 37% of control, taken from ref. 26; cited from earlier work
[5] = tested on: HuT 78; details: removed in 6 hrs following a 1 hr, 10 μM exposure, taken from ref. 26; cited from earlier work
[6] = tested on: HuT 78; test: inhibition of growth of HuT 78 cells, 3 day continuous cisplatin exposure; assay type: cell-based, human; details: continuous exposure to cisplatin for 3 days, 50% reduction in cell number
Experimental: as §1, §2

[7] = tested on: H9; details: platination level that reduces CAT activity to 37% of control, taken from ref. 26; cited from earlier work
[8] = tested on: three human T lymphocyte cell lines (HuT 78, H9 and MOLT-4); test: cisplatin sensitivity compared across the three T cell lines; assay type: cell-based; details: across HuT 78, H9 and MOLT-4
Experimental: as §1, §2

[9] = tested on: H9; test: inhibition of growth of H9 cells, 3 day continuous cisplatin exposure; assay type: cell-based, human; details: continuous exposure to cisplatin for 3 days, 50% reduction in cell number
Experimental: as §1, §2

[10] = tested on: MOLT-4; details: removed in 6 hrs following a 1 hr, 10 μM exposure, taken from ref. 26; cited from earlier work

Compound: N.N.[Cl][Pt][Cl] [cisplatin]
- Cellular DNA Repair (pg Pt/μg DNA removed in 6 hrs) [1]: 3.9 pg Pt/μg DNA
- Reactivation of platinated plasmid Bo [2]: 13 adducts/plasmid
- IC50 [3]: 330 nM
- Reactivation of platinated plasmid Bo [4]: 22 adducts/plasmid
- Cellular DNA Repair (pg Pt/μg DNA removed in 6 hrs) [5]: 5.6 pg Pt/μg DNA
- IC50 [6]: 830 nM
- Reactivation of platinated plasmid Bo [7]: 18 adducts/plasmid
- cisplatin sensitivity varied by [8]: about 3 fold
- IC50 [9]: 450 nM
- Cellular DNA Repair (pg Pt/μg DNA removed in 6 hrs) [10]: 2.3 pg Pt/μg DNA

Reference: patent US5705336A, “Assay for sensitivity of tumors to DNA-platinating chemotherapy” (The United States of America as represented by the …, priority 1995, dated 1998)
